Data as given in PMC12308784, “Organometallic Half-Sandwich Complexes of 1,10-Phenanthroline Derivatives with Improved Solubility, Albumin-Binding, and Nanoformulation Potential Targeting Drug Resistance in Cancer” (Inorganic Chemistry, 2025).
Like-named read-outs stand apart in the source and are kept apart here.

Tests used:
[1] = n-octanol/water distribution coefficient, shake-flask; format: physicochemical; conditions: n-octanol/20 mM phosphate buffer, pH = 7.4, t = 25 °C; for logD at 4 h: n-octanol/buffered aqueous solution
Source text: The bioactive compounds must cross the cell membrane, which is influenced by their lipophilicity. Therefore, we characterized the lipophilicity of the complexes using n-octanol–water partitioning at three different chloride ion concentrations at pH 7.4. As the H2O/Cl^– exchange alters the charge of the complexes, it consequently affects their lipophilicity. The ratio of chlorido and aqua complexes depends on the actual Cl^– concentration and the chloride affinity of the complex. Chloride ion concentrations were chosen to mimic physiological conditions, specifically those found in blood (100 mM), cytosol (24 mM), and the nucleus (4 mM).
The traditional shake-flask method was used to obtain distribution coefficients of the ligands as well as of the complexes in n-octanol/buffered aqueous solution (20 mM phosphate, pH = 7.4) at different chloride ion concentrations (4, 24, and 100 mM) using UV–vis spectrophotometry (Agilent Cary 8454 diode array spectrophotometer) for the analysis. The compounds were dissolved in buffered aqueous solutions previously saturated with n-octanol. Then the aqueous and n-octanol phases were gently mixed in different volume ratios (using 1:60 for the ligands, 1:10 for the RhCp* and the RuCym complexes ratios of n-octanol to buffered aqueous solution volume) for 4 h, followed by phase separation. Then the UV–vis spectrum of the original aqueous sample and the aqueous and n-octanol phases was recorded and distribution coefficients (D) were calculated according to the formula described in our former work in detail.

MCF-7 = experiment: PrestoBlue cytotoxicity assay; format: cell-based; conditions: for pIC50 (mean): Table S5
Protocol: (§1) MDA-MB-231 breast adenocarcinoma and MCF-7 and T-47D invasive breast carcinomas were purchased from the Developmental Therapeutic Program of the National Cancer Institute (NIH, USA), and they were cultured in RPMI medium (Thermo Fisher). MES–SA and MES–SA/Dx5 uterine sarcoma cell lines were purchased from American Type Culture Collection and were kept in DMEM (Thermo Fisher). MES–SA/B1 was created by the transfection of the human MDR1 gene in MES–SA, and MES–SA mCherry, MES–SA/B1 mOrange, and MES–SA/Dx5 eGFP were engineered to stably express the respective fluorescent proteins, as described previously. Culture media were supplemented with 10% fetal bovine serum, 2 mM L-glutamine, 100 units/mL penicillin, and 100 μg/mL streptomycin (Thermo Fisher). Cells were kept at 37 °C under 5% CO2 and were negative for mycoplasma infection.
(§2) Cytotoxicity of the nonfluorescent cancer cells (MDA-MB-231, MCF-7, T-47D) were assessed with PrestoBlue cell viability reagent (Thermo Fisher). Briefly, 2500 cells/well were seeded on 384-well plates, and then the next day drugs were added. After 72 h incubation, PrestoBlue was added in a 10% final concentration, and after an hour of additional incubation, plates were measured with a PerkinElmer EnSpire plate reader at 555 nm/585 nm excitation/emission wavelengths. Fluorescent cells (MES-SA mCherry, MES-SA/B1 mOrange, MES-SA/Dx5 eGFP) were admixed before seeding on 384-well plates at 800 cells/well density each, thus altogether 2400 cells/well. Drugs were added the following day, and the intensity of the fluorescent proteins were measured after 144 h incubation at the respective fluorescent channels (excitation/emission: eGFP: 485 nm/510 nm; mCherry: 585 nm/610 nm; mOrange: 545 nm/567 nm). pIC50 values were calculated by a custom program written by Judit Sessler in C#. IC50 values and standard deviation were calculated from average pIC50 values from at least 3 independent measurements. Since the IC50 values were obtained through nonlinear regression fitting of the viability vs. log(concentration) data, the resulting confidence intervals are inherently asymmetric (see pIC50 values and their corresponding SD in Tables S5 and S6).

MDA-MB-231 = experiment: PrestoBlue cytotoxicity assay; format: cell-based; conditions: for pIC50 (mean): Table S5
Protocol: as §1, §2

T47D = experiment: PrestoBlue cytotoxicity assay; format: cell-based; conditions: for pIC50 (mean): Table S5
Protocol: as §1, §2

[2] = test system: MDA-MB-231, MCF-7 and T-47D breast cancer cell lines; experiment: PrestoBlue cytotoxicity, range over the three breast cancer lines; format: cell-based; conditions: MDA-MB-231, MCF-7, T-47D; 72 h
Protocol: The PHEN-derived ligands (DCP, BP) (together with PHEN for comparison) and the isolated complexes ([RuCym(DCP)-Cl]-Cl, [RhCp*(DCP)-Cl]-Cl, [RuCym(BP)-Cl]-Cl, [RhCp*(BP)-Cl]-Cl) were tested against the estrogen receptor (ER) negative MDA-MB-231, and the ER positive MCF-7 and T-47D breast cancer cell lines (Table , and Figure a for easier comparison).
as §1
as §2, with “measurements.” for “measurements. Since the IC50 values were obtained through nonlinear regression fitting of the viability vs. log(concentration) data, the resulting confidence intervals are inherently asymmetric (see pIC50 values and their corresponding SD in Tables S5 and S6).”

[3] = Homo sapiens, MCF7, 72 h, 384-well plate, read-out: IC50
[4] = Homo sapiens, MCF7, Table S5, read-out: pIC50 (mean) (converted)
[5] = Homo sapiens, 72 h, 384-well plate, read-out: IC50
[6] = Homo sapiens, Table S5, read-out: pIC50 (mean) (converted)
[7] = 72 h, 384-well plate, read-out: IC50

Row | Molecule | logD at 4 h ([1]; c(Cl–) = 100 mM) | IC50 (MCF-7; [3]) | IC50 (MCF-7; [4]) | IC50 (MDA-MB-231; [5]) | IC50 (MDA-MB-231; [6]) | IC50 (T47D; [5]) | IC50 (T47D; [6]) | IC50 [2] | logD ([1]; c(Cl–) = 4 mM) | logD ([1]; c(Cl–) = 24 mM) | logD ([1]; c(Cl–) = 100 mM) | IC50 (MCF-7; [7]) | pIC50 (mean) (MCF-7) | IC50 (MDA-MB-231; [7]) | pIC50 (mean) (MDA-MB-231) | IC50 (T47D; [7]) | pIC50 (mean) (T47D)
1 | c1ccc(-c2ccnc3c2ccc2c(-c4ccccc4)ccnc23)cc1 [BP, 4,7-diphenyl-1,10-phenanthroline] | 3.69 | 0.59 µM | 0.589 µM | 0.76 µM | 0.759 µM | 0.63 µM | 0.631 µM | 0.59 to 0.76 µM | – | – | – | – | – | – | – | – | –
2 | Clc1ccnc2c1ccc1c(Cl)ccnc12 [DCP, 4,7-dichloro-1,10-phenanthroline] | 2.4 | 3.84 µM | 3.8 µM | 5.09 µM | 5.13 µM | 4.29 µM | 4.27 µM | 3.8 to 5.1 µM | – | – | – | – | – | – | – | – | –
3 | Cc1c(C)c(C)[c-](C)c1C.Clc1ccnc2c1ccc1c(Cl)ccnc12.[Cl-].[Cl-].[Rh+3] [RhCp*DCP, [Rh(III)(η^5-C5Me5)(4,7-dichloro-1,10-phenanthroline)Cl]Cl] | – | – | – | – | – | – | – | 5.9 to 7.6 µM | –1.03 ± 0.03 | –0.59 ± 0.02 | –0.38 ± 0.02 | 5.92 µM | 5.23 | 7.56 µM | 5.12 | 7.36 µM | 5.13
4 | Cc1ccc(C(C)C)cc1.[Cl-].[Cl-].[Ru+2].c1ccc(-c2ccnc3c2ccc2c(-c4ccccc4)ccnc23)cc1 [RuCymBP, [Ru(II)(η^6-p-cymene)(bathophenanthroline)Cl]Cl] | – | – | – | – | – | – | – | 1.2 to 1.9 µM | +1.46 ± 0.02 | +1.97 ± 0.02 | +2.48 ± 0.02 | 1.93 µM | 5.71 | 1.23 µM | 5.91 | 1.86 µM | 5.73
5 | Cc1ccc(C(C)C)cc1.Clc1ccnc2c1ccc1c(Cl)ccnc12.[Cl-].[Cl-].[Ru+2] [RuCymDCP, [Ru(II)(η^6-p-cymene)(4,7-dichloro-1,10-phenanthroline)Cl]Cl] | – | – | – | – | – | – | – | > 75 µM | –0.55 ± 0.04 | +0.04 ± 0.12 | +0.35 ± 0.12 | 76.4 µM | 4.12 | > 100 µM | – | 75 µM | 4.13
6 | [Rh(III)(η^5-C5Me5)(bathophenanthroline)Cl]Cl [RhCp*BP] | – | – | – | – | – | – | – | 4.7 to 14.9 µM | +0.82 ± 0.01 | +1.35 ± 0.03 | – | 14.9 µM | 4.83 | 4.68 µM | 5.33 | 5.28 µM | 5.28
